{"source": "patent US20100144733A1", "about": "“Compounds, compositions and methods comprising heteroaromatic derivatives” (Institute for OneWorld Health, priority 2008, published 2010)", "molecular_target": "T1, CFTR (Homo sapiens, UniProt P13569)", "T1 construct": "endogenous in cells; host or cells: T84 human colonic cells (ECACC)", "T1 sequence (P13569 whole entry)": "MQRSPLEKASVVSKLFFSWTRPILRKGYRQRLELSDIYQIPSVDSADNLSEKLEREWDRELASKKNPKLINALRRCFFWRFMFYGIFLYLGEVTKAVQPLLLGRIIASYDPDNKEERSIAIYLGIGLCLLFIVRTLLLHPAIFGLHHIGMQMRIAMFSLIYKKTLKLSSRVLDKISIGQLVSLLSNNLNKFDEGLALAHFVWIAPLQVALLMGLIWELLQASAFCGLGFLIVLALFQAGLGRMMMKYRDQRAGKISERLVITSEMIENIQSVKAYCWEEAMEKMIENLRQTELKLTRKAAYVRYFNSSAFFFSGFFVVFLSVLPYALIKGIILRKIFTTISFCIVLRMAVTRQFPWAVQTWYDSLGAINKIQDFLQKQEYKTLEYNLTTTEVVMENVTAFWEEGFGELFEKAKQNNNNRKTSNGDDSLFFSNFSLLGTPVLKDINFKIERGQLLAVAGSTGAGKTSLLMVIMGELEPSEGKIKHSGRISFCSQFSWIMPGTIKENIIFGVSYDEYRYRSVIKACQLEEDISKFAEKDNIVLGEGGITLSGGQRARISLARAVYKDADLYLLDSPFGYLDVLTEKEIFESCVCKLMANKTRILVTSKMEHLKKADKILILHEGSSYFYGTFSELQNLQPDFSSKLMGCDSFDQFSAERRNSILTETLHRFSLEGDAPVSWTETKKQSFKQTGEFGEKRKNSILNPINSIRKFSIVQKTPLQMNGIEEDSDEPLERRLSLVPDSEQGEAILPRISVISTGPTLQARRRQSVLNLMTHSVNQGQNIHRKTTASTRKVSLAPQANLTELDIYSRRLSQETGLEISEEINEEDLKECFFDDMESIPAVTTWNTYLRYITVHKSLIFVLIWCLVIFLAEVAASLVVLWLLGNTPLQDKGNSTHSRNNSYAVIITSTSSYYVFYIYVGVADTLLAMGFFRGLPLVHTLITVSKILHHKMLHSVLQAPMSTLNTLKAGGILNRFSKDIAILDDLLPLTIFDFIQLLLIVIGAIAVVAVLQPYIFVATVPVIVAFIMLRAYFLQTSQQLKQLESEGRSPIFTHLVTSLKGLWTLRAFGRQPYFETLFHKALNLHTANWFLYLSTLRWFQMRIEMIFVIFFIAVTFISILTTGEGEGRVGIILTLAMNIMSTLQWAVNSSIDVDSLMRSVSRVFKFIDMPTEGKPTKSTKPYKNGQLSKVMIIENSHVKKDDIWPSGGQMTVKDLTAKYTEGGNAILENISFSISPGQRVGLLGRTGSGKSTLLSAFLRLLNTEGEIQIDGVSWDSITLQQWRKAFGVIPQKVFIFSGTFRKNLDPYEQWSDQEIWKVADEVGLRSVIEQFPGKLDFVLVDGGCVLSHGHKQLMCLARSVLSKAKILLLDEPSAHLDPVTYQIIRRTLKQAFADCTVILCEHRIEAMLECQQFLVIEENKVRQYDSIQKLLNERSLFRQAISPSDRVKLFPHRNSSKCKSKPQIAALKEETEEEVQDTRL", "assay": "T84 assay (FLIPR membrane potential dye, forskolin/IBMX-stimulated CFTR channel activity)", "format": "cell-based", "protocol": "(§1) For example, Human colonic T84 cells can be acquired from the European Collection of Cell Cultures (ECACC) and grown in standard culture conditions as described by the supplier. On the day before assay 25,000 T84 cells per well are plated into standard black walled, clear bottom 384-well assay plates in standard growth medium consisting of DMEM:F12 with 10% FBS and incubated overnight. On the day of the assay the plates are washed using a standard assay buffer (HBSS with 10 mM Hepes) and incubated for 15 minutes in serum free cell culture medium before the addition of a commercially available membrane potential sensitive fluorescent dye (FLIPRRed membrane potential dye, Molecular Devices Corporation). T84 cells are incubated with the FLIPRRed membrane potential dye for 45 minutes in the presence and absence of test compound before being transferred to a commercially available fluorescence imaging plate reader (FLIPR384, Molecular Devices Corporation). Fluorescence levels are monitored continuously every second for 150 seconds; after an initial 10 second baseline, CFTR channel activity is stimulated through the addition of 10 μM forskolin in the presence of 100 μM of the phosphodiesterase inhibitor iso-butyl-methylxanthine (IBMX). Addition of the forskolin leads to the activation of intracellular adenylyl cylase 1, elevating cAMP levels and results in the phosphorylation and opening of CFTR anion channels. CFTR channel opening causes chloride ion efflux and subsequent depolarization of the cells, which is measured by an increase in fluorescence. CFTR inihibitor compounds prevent cell depolarization and the associatred increase in fluorescence.\nas §1, with “Human colonic” for “For example, Human colonic”, “T84 cells are acquired from” for “T84 cells can be acquired from”, “(ECACC) and are grown in” for “(ECACC) and grown in”, “10 μM Forskolin in the” for “10 μM forskolin in the”, “fluorescence. CFTR inhibitor compounds prevent” for “fluorescence. CFTR inihibitor compounds prevent”, “and the associated increase in” for “and the associatred increase in”", "key": {"[1]": {"details": "oxadiazole-containing compounds (a series), average of at least 2 runs unless annotated n = 1, read-out: IC50"}, "[2]": {"details": "imidazole and triazole-containing compounds (Tables 13, 14, 14′), read-out: IC50 (μM) (T84 assay)"}}, "note": "Read-outs that look alike come from different tables or passages of the source.", "data": [{"smiles": "O=C(NCc1ccccc1)c1nc(-c2cc(Br)c(O)c(Br)c2)no1", "note": "[33a, N-benzyl-3-(3,5-dibromo-4-hydroxyphenyl)-1,2,4-oxadiazole-5-carboxamide]", "values": [{"measurement": "IC50", "setting": "[1]", "result": 17.8, "unit": "µM"}]}, {"smiles": "O=C(Nc1ccc(Oc2ccc(C(F)(F)F)cc2)cc1)c1nc(-c2cc(Br)c(O)c(Br)c2)no1", "note": "[34a, 3-(3,5-dibromo-4-hydroxyphenyl)-N-(4-(4-(trifluoromethyl)phenoxy)phenyl)-1,2,4-oxadiazole-5-carboxamide]", "values": [{"measurement": "IC50", "setting": "[1]", "result": 18.3, "unit": "µM"}]}, {"smiles": "O=C(NCc1ccccc1F)c1nc(-c2cc(Br)c(O)c(Br)c2)no1", "note": "[35a, 3-(3,5-dibromo-4-hydroxyphenyl)-N-(2-fluorobenzyl)-1,2,4-oxadiazole-5-carboxamide]", "values": [{"measurement": "IC50", "setting": "[1]", "result": 19.2, "unit": "µM"}]}, {"smiles": "O=C(NCc1ccccc1C(F)(F)F)c1ncn(-c2cc(Cl)c(O)c(Cl)c2)n1", "note": "[35i, 1-(3,5-dichloro-4-hydroxyphenyl)-N-(2-(trifluoromethyl)benzyl)-1H-1,2,4-triazole-3-carboxamide]", "values": [{"measurement": "IC50", "setting": "[2]", "result": 23.8, "unit": "µM"}]}, {"smiles": "O=C(NCc1ccccc1C(F)(F)F)c1nc(-c2cc(Br)c(O)c(Br)c2)no1", "note": "[36a, 3-(3,5-dibromo-4-hydroxyphenyl)-N-(2-(trifluoromethyl)benzyl)-1,2,4-oxadiazole-5-carboxamide]", "values": [{"measurement": "IC50", "setting": "[1]", "result": 21.4, "unit": "µM"}]}, {"smiles": "O=C(NCc1ccc(C(F)(F)F)cc1)c1nc(-c2cc(Br)c(O)c(Br)c2)no1", "note": "[37a, 3-(3,5-dibromo-4-hydroxyphenyl)-N-(4-(trifluoromethyl)benzyl)-1,2,4-oxadiazole-5-carboxamide]", "values": [{"measurement": "IC50", "setting": "[1]", "result": 23, "unit": "µM"}]}, {"smiles": "CN(Cc1cccc(OC(F)(F)F)c1)C(=O)c1nc(-c2cc(Br)c(O)c(Br)c2)no1", "note": "[38a, 3-(3,5-dibromo-4-hydroxyphenyl)-N-methyl-N-(3-(trifluoromethoxy)benzyl)-1,2,4-oxadiazole-5-carboxamide]", "values": [{"measurement": "IC50", "setting": "[1]", "result": 2.52, "unit": "µM"}]}, {"smiles": "O=C(NCc1cccc(N2CCCCC2)c1)c1ncn(-c2cc(Cl)c(O)c(Cl)c2)n1", "note": "[38i, 1-(3,5-dichloro-4-hydroxyphenyl)-N-(3-(piperidin-1-yl)benzyl)-1H-1,2,4-triazole-3-carboxamide]", "values": [{"measurement": "IC50", "setting": "[2]", "result": 5.61, "unit": "µM"}]}, {"smiles": "O=C(O)COc1c(Br)cc(-c2noc(C(=O)N3CCC(Cc4ccccc4)CC3)n2)cc1Br", "note": "[39a, 2-(4-(5-(4-benzylpiperidine-1-carbonyl)-1,2,4-oxadiazol-3-yl)-2,6-dibromophenoxy) acetic acid]", "values": [{"measurement": "IC50", "setting": "[1]", "result": 26.7, "unit": "µM"}]}, {"smiles": "O=C(NCc1ccc(-c2ccc(C(F)(F)F)cn2)cc1)c1ncn(-c2cc(Cl)c(O)c(Cl)c2)n1", "note": "[39i, 1-(3,5-dichloro-4-hydroxyphenyl)-N-(4-(5-(trifluoromethyl)pyridin-2-yl)benzyl)-1H-1,2,4-triazole-3-carboxamide]", "values": [{"measurement": "IC50", "setting": "[2]", "result": 2.51, "unit": "µM"}]}, {"smiles": "O=C(NCc1ccc(Cl)cc1)c1nc(-c2cc(Br)c(O)c(Br)c2)no1", "note": "[40a, N-(4-chlorobenzyl)-3-(3,5-dibromo-4-hydroxyphenyl)-1,2,4-oxadiazole-5-carboxamide]", "values": [{"measurement": "IC50", "setting": "[1]", "result": 27.1, "unit": "µM"}]}, {"smiles": "O=C(NCc1ccccc1OC(F)F)c1ncn(-c2cc(Cl)c(O)c(Cl)c2)n1", "note": "[41i, 1-(3,5-dichloro-4-hydroxyphenyl)-N-(2-(difluoromethoxy)benzyl)-1H-1,2,4-triazole-3-carboxamide]", "values": [{"measurement": "IC50", "setting": "[2]", "result": 22.4, "unit": "µM"}]}, {"smiles": "O=C(NCc1ccc(F)c(F)c1)c1ncn(-c2cc(Cl)c(O)c(Cl)c2)n1", "note": "[42i, 1-(3,5-dichloro-4-hydroxyphenyl)-N-(3,4-difluorobenzyl)-1H-1,2,4-triazole-3-carboxamide]", "values": [{"measurement": "IC50", "setting": "[2]", "result": 15.9, "unit": "µM"}]}, {"smiles": "O=C(NCc1cc(F)c(F)c(F)c1)c1ncn(-c2cc(Cl)c(O)c(Cl)c2)n1", "note": "[43i, 1-(3,5-dichloro-4-hydroxyphenyl)-N-(3,4,5-trifluorobenzyl)-1H-1,2,4-triazole-3-carboxamide]", "values": [{"measurement": "IC50", "setting": "[2]", "result": 13.3, "unit": "µM"}]}, {"smiles": "O=C(NCc1ccc(N2CCCCC2)cc1)c1ncn(-c2cc(Cl)c(O)c(Cl)c2)n1", "note": "[45i, 1-(3,5-dichloro-4-hydroxyphenyl)-N-(4-(piperidin-1-yl)benzyl)-1H-1,2,4-triazole-3-carboxamide]", "values": [{"measurement": "IC50", "setting": "[2]", "result": 8.22, "unit": "µM"}]}, {"smiles": "O=C(NCc1cccc(-n2cccn2)c1)c1ncn(-c2cc(Cl)c(O)c(Cl)c2)n1", "note": "[46i]", "values": [{"measurement": "IC50", "setting": "[2]", "result": 28.6, "unit": "µM"}]}, {"smiles": "O=C(NCc1cccc(Cl)c1)c1ncn(-c2cc(Cl)c(O)c(Cl)c2)n1", "note": "[47i, N-(3-chlorobenzyl)-1-(3,5-dichloro-4-hydroxyphenyl)-1H-1,2,4-triazole-3-carboxamide]", "values": [{"measurement": "IC50", "setting": "[2]", "result": 12.6, "unit": "µM"}]}, {"smiles": "O=C(NCc1ccc(Cl)cc1)c1ncn(-c2cc(Cl)c(O)c(Cl)c2)n1", "note": "[48i, N-(4-chlorobenzyl)-1-(3,5-dichloro-4-hydroxyphenyl)-1H-1,2,4-triazole-3-carboxamide]", "values": [{"measurement": "IC50", "setting": "[2]", "result": 8.67, "unit": "µM"}]}, {"smiles": "C=CCN(Cc1cccc(C(F)(F)F)c1)C(=O)c1nc(-c2cc(Br)c(O)c(Br)c2)no1", "note": "[59a, N-allyl-3-(3,5-dibromo-4-hydroxyphenyl)-N-(3-(trifluoromethyl)benzyl)-1,2,4-oxadiazole-5-carboxamide]", "values": [{"measurement": "IC50", "setting": "[1]", "result": 3.35, "unit": "µM"}]}, {"smiles": "CCN(Cc1cccc(C(F)(F)F)c1)C(=O)c1nc(-c2cc(Br)c(O)c(Br)c2)no1", "note": "[60a, 3-(3,5-Dibromo-4-hydroxyphenyl)-N-ethyl-N-(3-(trifluormethyl)benzyl)-1,2,4-oxadiazole-5-carboxamide]", "values": [{"measurement": "IC50", "setting": "[1]", "result": 12.6, "unit": "µM"}]}, {"smiles": "O=C(c1ccccc1)C1CCN(C(=O)c2ncn(-c3cc(Cl)c(O)c(Cl)c3)n2)CC1", "note": "[61i, (4-benzoylpiperidin-1-yl)(1-(3,5-dichloro-4-hydroxyphenyl)-1H-1,2,4-triazol-3-yl)methanone]", "values": [{"measurement": "IC50", "setting": "[2]", "result": 26.7, "unit": "µM"}]}, {"smiles": "CN(Cc1ccccc1)C(=O)c1nc(-c2cc(Cl)c(O)c(Cl)c2)no1", "note": "[62a, N-benzyl-3-(3,5-dichloro-4-hydroxyphenyl)-N-methyl-1,2,4-oxadiazole-5-carboxamide]", "values": [{"measurement": "IC50", "setting": "[1]", "result": 18.6, "unit": "µM"}]}, {"smiles": "O=C(c1noc(-c2cc(Br)c(O)c(Br)c2)n1)N1CCC(Cc2ccccc2)CC1", "note": "[66a, (4-benzylpiperidin-1-yl)(5-(3,5-dibromo-4-hydroxyphenyl)-1,2,4-oxadiazol-3-yl)methanone]", "values": [{"measurement": "IC50", "setting": "[1]", "result": 11.7, "unit": "µM"}]}, {"smiles": "COC(=O)C1CCN(C(=O)COc2c(Br)cc(-c3noc(C(=O)N4CCC(Cc5ccccc5)CC4)n3)cc2Br)CC1", "note": "[68a, methyl 1-(2-(4-(5-(4-benzylpiperidine-1-carbonyl)-1,2,4-oxadiazol-3-yl)-2,6-dibromophenoxy)acetyl)piperidine-4-carboxylate]", "values": [{"measurement": "IC50", "setting": "[1]", "result": 10.3, "unit": "µM"}]}, {"smiles": "O=C(COc1c(Br)cc(-c2noc(C(=O)N3CCC(Cc4ccccc4)CC3)n2)cc1Br)N(CCO)CCO", "note": "[71a, 2-(4-(5-(4-benzylpiperidine-1-carbonyl)-1,2,4-oxadiazol-3-yl)-2,6-dibromophenoxy)-N,N-bis(2-hydroxyethyl)acetamide]", "values": [{"measurement": "IC50", "setting": "[1]", "result": 18.9, "unit": "µM"}]}, {"smiles": "O=C(NCc1cccc(C(F)(F)F)c1)c1noc(-c2cc(Cl)c(O)c(Cl)c2)n1", "note": "[74a, 5-(3,5-dichloro-4-hydroxyphenyl)-N-(3-(trifluoromethyl)benzyl)-1,2,4-oxadiazole-3-carboxamide]", "values": [{"measurement": "IC50", "setting": "[1]", "result": 2.6, "unit": "µM"}]}, {"smiles": "Cc1noc(C)c1CCNC(=O)c1ncn(-c2cc(Cl)c(O)c(Cl)c2)n1", "note": "[74i, 1-(3,5-dichloro-4-hydroxyphenyl)-N-(2-(3,5-dimethylisoxazol-4-yl)ethyl)-1H-1,2,4-triazole-3-carboxamide]", "values": [{"measurement": "IC50", "setting": "[2]", "result": 1.28, "unit": "µM"}]}, {"smiles": "O=C(NCc1cccc(OC(F)(F)F)c1)c1noc(-c2cc(Cl)c(O)c(Cl)c2)n1", "note": "[75a, 5-(3,5-dichloro-4-hydroxyphenyl)-N-(3-(trifluoromethoxy)benzyl)-1,2,4-oxadiazole-3-carboxamide]", "values": [{"measurement": "IC50", "setting": "[1]", "result": 2.09, "unit": "µM"}]}, {"smiles": "CC(C)(C)CCN(Cc1cccc(OC(F)(F)F)c1)C(=O)c1ncn(-c2cc(Cl)c(O)c(Cl)c2)n1", "note": "[77i, 1-(3,5-dichloro-4-hydroxyphenyl)-N-(3,3-dimethylbutyl)-N-(3-(trifluoromethoxy)benzyl)-1H-1,2,4-triazole-3-carboxamide]", "values": [{"measurement": "IC50", "setting": "[2]", "result": 3.01, "unit": "µM"}]}, {"smiles": "O=C(c1noc(-c2cc(Cl)c(O)c(Cl)c2)n1)N1CCC(Cc2ccccc2)CC1", "note": "[78a, (4-benzylpiperidin-l-yl)(5-(3,5-dichloro-4-hydroxyphenyl)-1,2,4-oxadiazol-3-yl)methanone]", "values": [{"measurement": "IC50", "setting": "[1]", "result": 11.2, "unit": "µM"}]}, {"smiles": "O=C(NCc1ccc(Oc2ccccc2)cc1)c1noc(-c2cc(Cl)c(O)c(Cl)c2)n1", "note": "[79a, 5-(3,5-dichloro-4-hydroxyphenyl)-N-(4-phenoxybenzyl)-1,2,4-oxadiazole-3-carboxamide]", "values": [{"measurement": "IC50", "setting": "[1]", "result": 17.5, "unit": "µM"}]}, {"smiles": "CC(C)(C)CCN(Cc1cccc(C(F)(F)F)c1)C(=O)c1ncn(-c2cc(Cl)c(O)c(Cl)c2)n1", "note": "[79i, 1-(3,5-dichloro-4-hydroxyphenyl)-N-(3,3-dimethylbutyl)-N-(3-(trifluoromethyl)benzyl)-1H-1,2,4-triazole-3-carboxamide]", "values": [{"measurement": "IC50", "setting": "[2]", "result": 2.23, "unit": "µM"}]}]}
